Measurements from US20250289827A1, “MORPHIC FORMS OF A MUTANT BRAF DEGRADER AND METHODS OF MANUFACTURE THEREOF” (C4 THERAPEUTICS, INC., priority 2022, published 2025).
Values after ≈ are worked out from the molar mass of the structure shown. Read-outs that look alike come from different tables or passages of the source.

Legend:
[1] = Salt screening by anti-solvent addition; format: physicochemical; conditions: Choline; MeOH/0.2 mL, anti-solvent MTBE/0.3 mL
[2] = Approximate solubility at 25° C. and 50° C. (visual); format: physicochemical
Description: About 5 mg of Compound 1 Form A was weighed to a 2 mL glass vial. 20 μL aliquots of each solvent were added to dissolve the drug substance at 25° C. About 10 mg of Compound 1 Form A was weighed to a 2 mL glass vial. 20 μL aliquots of each solvent were added to dissolve the drug substance at 50° C. Vortex and sonication were applied to assist dissolution. Maximum volume of each solvent added was 1 mL. Approximate solubility was determined by visual observation.
About 5 mg of Compound 1 Form B was weighed to a 2 mL glass vial. 20 μL aliquots of each solvent were added to dissolve the drug substance at 25° C. About 10 mg of Compound 1 Form B was weighed to a 2 mL glass vial. […] aliquots of each solvent were added to dissolve the drug substance at 50° C. Vortex and sonication were applied to assist dissolution. Maximum volume of each solvent added is 1 mL. Approximate solubility was determined by visual observation.

Which Notes [1] does the source give for `CCN(C)S(=O)(=O)Nc1ccc(F)c(Oc2ccc3ncn([C@H]4COC5(CCN(C(=O)CC6(O)CCN(c7cc8c(cc7F)c(N7CCC(=O)NC7=O)nn8C)CC6)CC5)C4)c(=O)c3c2)c1C#N` [Compound 1 Form A] here?
Its Notes is “Sticky material”.

And the solubility ([2]; 1,4-Dioxane, 25° C., listed as Form A)?
Its solubility is over 250000 µg/mL.

And the solubility ([2]; 1,4-Dioxane, 50° C., listed as Form A)?
Its solubility is over 500000 µg/mL.

And the solubility ([2]; 2-MeTHF, 25 °C, organic solvent or mixture, thermodynamic from solid, 2-MeTHF, 25° C., read-out: Solubility)?
Its solubility is 5000 to 7000 µg/mL (≈ 5.22 to 7.31 mM).

And the solubility ([2]; 2-MeTHF, 50 °C, organic solvent or mixture, thermodynamic from solid, 2-MeTHF, 50° C., read-out: Solubility)?
The solubility was under 10000 µg/mL.

And the solubility ([2]; Acetone, 25° C., listed as Form A)?
The solubility was 13000 to 17000 µg/mL.

What about the solubility ([2]; Acetone, 50° C., listed as Form A) of the same molecule?
Its solubility is 25000 to 29000 µg/mL.

And the solubility ([2]; Acetonitrile, 25° C., listed as Form A)?
Its solubility is 13000 to 17000 µg/mL.

What about the solubility ([2]; Acetonitrile, 50° C., listed as Form A) of the same molecule?
Its solubility is 25000 to 33000 µg/mL.

What about the solubility ([2]; DCM, 25° C., listed as Form A) of the same molecule?
Its solubility is over 250000 µg/mL.

What about the solubility ([2]; DMSO, 25 °C, organic solvent or mixture, thermodynamic from solid, DMSO, 25° C., read-out: Solubility) of the same molecule?
Its solubility is at least 250000 µg/mL.

And the solubility ([2]; DMSO, 50 °C, organic solvent or mixture, thermodynamic from solid, DMSO, 50° C., read-out: Solubility)?
Its solubility is over 500000 µg/mL.

What about the solubility ([2]; MTBE, 25 °C, organic solvent or mixture, thermodynamic from solid, MTBE, 25° C., read-out: Solubility) of the same molecule?
The solubility was under 5000 µg/mL.

And the solubility ([2]; MTBE, 50 °C, organic solvent or mixture, thermodynamic from solid, MTBE, 50° C., read-out: Solubility)?
Its solubility is under 10000 µg/mL.

And the solubility ([2]; THF, 25° C., listed as Form A)?
Its solubility is over 250000 µg/mL.

And the solubility ([2]; THF, 50° C., listed as Form A)?
The solubility was over 500000 µg/mL.

And the solubility ([2]; ethanol, 25 °C, organic solvent or mixture, thermodynamic from solid, Ethanol, 25° C., read-out: Solubility)?
The solubility was under 5000 µg/mL.

And the solubility ([2]; ethanol, 50 °C, organic solvent or mixture, thermodynamic from solid, Ethanol, 50° C., read-out: Solubility)?
The solubility was under 10000 µg/mL.

What about the solubility ([2]; ethyl acetate, 25 °C, organic solvent or mixture, thermodynamic from solid, Ethyl acetate, 25° C., read-out: Solubility) of the same molecule?
Its solubility is under 5000 µg/mL.

What about the solubility ([2]; ethyl acetate, 50 °C, organic solvent or mixture, thermodynamic from solid, Ethyl acetate, 50° C., read-out: Solubility) of the same molecule?
The solubility was under 10000 µg/mL.

What about the solubility ([2]; heptane, 25 °C, organic solvent or mixture, thermodynamic from solid, Heptane, 25° C., read-out: Solubility) of the same molecule?
Its solubility is under 5000 µg/mL.

What about the solubility ([2]; heptane, 50 °C, organic solvent or mixture, thermodynamic from solid, Heptane, 50° C., read-out: Solubility) of the same molecule?
The solubility was under 10000 µg/mL.

And the solubility ([2]; isopropanol, 25 °C, organic solvent or mixture, thermodynamic from solid, Isopropanol, 25° C., read-out: Solubility)?
The solubility was under 5000 µg/mL.

What about the solubility ([2]; isopropanol, 50 °C, organic solvent or mixture, thermodynamic from solid, Isopropanol, 50° C., read-out: Solubility) of the same molecule?
Its solubility is under 10000 µg/mL.

And the solubility ([2]; isopropyl acetate, 25 °C, organic solvent or mixture, thermodynamic from solid, Isopropyl acetate, 25° C., read-out: Solubility)?
The solubility was under 5000 µg/mL.

And the solubility ([2]; isopropyl acetate, 50 °C, organic solvent or mixture, thermodynamic from solid, Isopropyl acetate, 50° C., read-out: Solubility)?
The solubility was under 10000 µg/mL.

And the solubility ([2]; methanol, 25 °C, organic solvent or mixture, thermodynamic from solid, Methanol, 25° C., read-out: Solubility)?
Its solubility is about 3000 µg/mL (≈ 3.13 mM).

What about the solubility ([2]; methanol, 50 °C, organic solvent or mixture, thermodynamic from solid, Methanol, 50° C., read-out: Solubility) of the same molecule?
Its solubility is 5000 to 10000 µg/mL (≈ 5.22 to 10.4 mM).

And the solubility ([2]; methyl ethyl ketone, 25 °C, organic solvent or mixture, thermodynamic from solid, Methyl ethyl ketone, 25° C., read-out: Solubility)?
Its solubility is 14000 to 17000 µg/mL (≈ 14.6 to 17.7 mM).

What about the solubility ([2]; methyl ethyl ketone, 50 °C, organic solvent or mixture, thermodynamic from solid, Methyl ethyl ketone, 50° C., read-out: Solubility) of the same molecule?
Its solubility is 25000 to 33000 µg/mL (≈ 26.1 to 34.4 mM).

And the solubility ([2]; toluene, 25 °C, organic solvent or mixture, thermodynamic from solid, Toluene, 25° C., read-out: Solubility)?
The solubility was under 5000 µg/mL.

What about the solubility ([2]; toluene, 50 °C, organic solvent or mixture, thermodynamic from solid, Toluene, 50° C., read-out: Solubility) of the same molecule?
Its solubility is under 10000 µg/mL.

What about the solubility ([2]; water, 25 °C, water, thermodynamic from solid, Water, 25° C., read-out: Solubility) of the same molecule?
Its solubility is under 5000 µg/mL.

And the solubility ([2]; water, 50 °C, water, thermodynamic from solid, Water, 50° C., read-out: Solubility)?
Its solubility is under 10000 µg/mL.
